Laboratory results: US6589937B1, “Peptides and nootropic agent” (Kabushiki Kaisha Yakult Honsha, priority 1996, dated 2003)
Where a SMILES comes first, the peptide text is derived from it. [ ]: non-standard residue; d: D form. The star is where a group is joined. X1 = N=C(N)NCCC[C@H](N)C(=O)N[C@@H](Cc1c[nH]cn1)C(=O)N1CCC[C@H]1C(=O)N[C@@H](CS*)C(=O)O; pGlu = O=C1CC[C@@H](C(=O)O)N1

Assays:
[1] = Evaluation of brain transition (CNS distribution after i.v. administration); conditions: mouse, in vivo, iv
Protocol: C-AVP 4-9-000 (389 Ci/mmol) labeled with ^125I by the chloramine-T method was administered (i.v.) to mice in 1 μCi, ^125I-C-AVP 4-9-000 in plasma was quantitated by separating the methanol extract using Radio-HPLC.
In the case of AS22, the radioactivity contained in the trifluoroacetic acid precipitate fraction was made the ^125I-AS22 amount. Further, ^125I-C-AVP 4-9-000 was quantitated by separating the methanol extract using Radio-HPLC.

[2] = type: in vitro ADME, rat
Protocol: C-AVP 4-9 series compound can be hydrolyzed in brain by the action of prolyl endopeptidase, and it is considered that they are converted to AVP 4-9.
Therefore, 500 μM of C-AVP 4-9-000 were incubated (6 hr., 37° C.) with a rat cerebral homogenate (100 μg/rat) in the presence or in the absence of carbobenzoyloxy prolyl-prolinal (ZPP, 20 μM) as known as a potent inhibitor for propyl endopeptitase. After incubation metabolites were extracted with methanol. The metabolites were analyzed by HPLC. Further, ZPP is a specific inhibitor for prolyl endopeptidase. After methanol extraction, the metabolites were quantitated by the separation with HPLC.

[3] = PI value by isoelectrofocusing (capillary electrophoresis); type: physicochemical; conditions: peptide 5 μg, UV 214 nm
Protocol: Further, the PI value was analyzed by the isoelectrofocusing method for the peptide 5 μg using a capillary electrophoretic apparatus (Beckman P/ACE 5000) and an isoelectrofocusing kit (eCAP 3-10, Beckman). The detection was carried out by UV 214 nm.

rats = assay: Passive avoidance test, administration 180 min before retention test; type: in vivo; conditions: rat, s.c., administered 3 hr before retention test
Protocol: The test solution in which each of these test drugs dissolved in saline was subcutaneously administered to rats. As to animals, male Wister rats (aged 7-9 weeks) were bought from Japan Charles River (JCR) and used after the preliminary feeding for more than one week. At the time of the preliminary feeding it lighted up from AM 8.00 to PM 8.00.
It was carried out by partially modifying the method of Ader R. R. (Psycon. Sci., 26, p125-128, 1972). Namely, rats were let stay in a light room of the passive avoidance test apparatus consisting of a light and dark rooms, and were let move freely for 2 min. After 45 min., the rats were let stay again in the light room. When the rats went into the dark room, the electric current 0.3 mA was applied for 30 sec. by Muromachikikai SGS-002 on the floor of the dark room. Further, in all processes of the experiment the rats were let move freely between the dark room and the light room. Each peptide was subcutaneously administered at 23 hr. (1 hr. before the retention test) after the electric shock. Subsequently, the rats were let stay in the light room after 1 hr. (24 hr. after the electric shock), the time (latency) when the rats went into the dark room was measured (retention test).
The test was carried out according to the test 2 except that the administration of the test solution was made at 21 hr. […]

Compound | transition into brain [1] | formation of AVP 4-9 after 6 hour's incubation [2] | parent remaining after 6 hour's incubation ([2]; rat, brain homogenate, 6 h) | PI values [3] | effectiveness in passive avoidance (latency) (rats)
N=C(N)NCCC[C@H](NC(=O)[C@@H]1CCCN1C(=O)[C@H](CSSC[C@H](NC(=O)[C@@H]1CCCN1C(=O)[C@H](Cc1c[nH]cn1)NC(=O)[C@@H](N)CCCNC(=N)N)C(=O)O)NC(=O)[C@H](CC(N)=O)NC(=O)[C@@H]1CCC(=O)N1)C(=O)NCC(N)=O [C-AVP 4-9-000] ([pGlu]NC(X1)PRG-NH2) | transited into brain in a sufficient concentration | the formation of AVP 4-9 was observed | scarcely remained | – | –
pGlu-Asn-Cys-Pro-Arg-Gly-NH2 ([pGlu]NCPRG-NH2) [AVP 4-9, 4-9 fragment of arginine vasopressin, control drug] | – | – | – | 9.27 | did not show any significant effectiveness
